In US20260151398A1, “COMPOUNDS FOR REDUCING CHOLESTEROL AND TREATING LIVER AND KIDNEY DISEASE” (McMaster University, priority 2021, published 2026):

Key:
[1] = tested on: PCSK9; experiment: PCSK9 expression in hepatocytes (immunoblot, real-time PCR); type: cell-based, human, mouse; settings: HuH7; ryanodine 10 μM, CDN 100 μM, 2 APB 50 μM; presence or absence of TG; 24 h
Experimental: (§1) HuH7 and HepG2 cells were routinely grown in complete Dulbecco's Modified Eagle's Medium (Gibco, Thermofisher Scientific) supplemented with 10% fetal bovine serum (Sigma-Aldrich) and 100 U/ml of penicillin and streptomycin (Sigma-Aldrich). […] All cell treatments were carried out for 24 h unless otherwise stated. Cells were transfected with a cocktail consisting of plasmid DNA (1 μg), X-tremeGENE HP (3 μl; Thermofisher Scientific) and opti-MEM (100 μl; Thermofischer Scientific) per 1 ml complete medium containing plated cells. Human PCSK9 was overexpressed using the bicistronic pIRES-EGFP plasmid; calnexin using the mPA-GFP-N1 plasmid. To block the expression of GRP78 and CD36, siGENOME smartpool siRNA was purchased from GE Dharmacon (M-008198-02 and L-010206-00-0005 respectively) and transfected using lipofectamine RNAiMAX as per manufacturer's protocol.
(§2) Cells were washed in phosphate-buffered saline (PBS), lysed in 4× SDS-PAGE lysis buffer and separated on 7-10% polyacrylamide gels in denaturing conditions. Gels were transferred to nitrocellulose membranes using the BioRad mini trans-blot system, blocked in 5% skim milk in tris-buffered saline (TBS) for 1 h and incubated in primary antibody overnight for 16 h at 4° C. Membranes were then exposed to horse radish peroxidase conjugated secondary antibodies and visualized using EZ-ECL chemiluminescent reagent (Froggabio). Band intensities were quantified using ImageJ software ([…]) against membranes reprobed for housekeeping proteins.
(§3) RNA purification/isolation was performed using RNeasy mini kits (Qiagen) and normalized to 2 μg RNA using a NanoDrop® spectrophotometer. Samples were then reverse transcribed into cDNA using Superscript Vilo cDNA Synthesis kit (Thermofisher Scientific). Real-time PCR was executed with Fast SYBR Green (Thermo Fisher Scientific) using the ΔΔct method on the ViiA7 real-time PCR platform (Thermofisher Scientific).
Cultured immortalized hepatocytes known to express and secrete PCSK9 (Lebeau, P., et al., 2017), including HuH7 and HepG2 cells, as well as primary mouse- and human-hepatocytes (PMH and PHH, respectively), were treated with CF for 24 h and assessed for PCSK9 expression via immunoblots and real-time PCR (FIG. 1 A to D). […] Given that sterol deprivation represents another well-established promoter of SREBP2 activation (Lebeau, P., et al., 2017), cells were also treated with CF in the presence and absence of U18666A (U18) that depletes intracellular sterols. […] Next, HepG2 cells were treated with an increasing dose of CF.

[2] = tested on: PCSK9; experiment: PCSK9 secretion from cultured and primary hepatocytes (ELISA of medium); type: cell-based, human, mouse; settings: ELISA of medium
Experimental: as §1
(§4) Secreted PCSK9 levels were assessed directly in cell culture medium of cells grown in FBS-free medium for 24 h or in the serum isolated from either mice or human subjects. Mouse PCSK9 was measured using the Quantikinine® ELISA kit (#MCP900, R&D Systems) and human PCSK9 using the PCSK9 Quantikinine® ELISA kit (#DCP900, R&D Systems). Serum ApoB levels were also quantified using ELISAs (#DAPB00, R&D Systems). Serum samples were diluted as per manufacturer's instructions.
All animal studies were carried out in 8 h-fasted male wild-type, Pcsk9^−/− or Ampkβ1^−/− mice on the C57BL/6J background. CF (25-100 mg/kg-8 h) and CDN (50 mg/kg) treatments were administered via intraperitoneal injection unless specified otherwise. Primary mouse hepatocytes were isolated using a two-step process with EGTA ([…] in HEPES buffer, Sigma Aldrich) and collagenase (0.05% in HEPES buffer, Sigma Aldrich) in 12-week-old male mice on the C57BL/6J background. Cells were then washed, centrifuged, and plated following isolation in cell strainers. Hepatosure® 100-donor pooled primary human hepatocytes were purchased from Xenotech. Primary hepatocytes were regularly grown in William's E medium (Gibco, Thermo Fisher Scientific) containing 10% fetal bovine serum, 100 IU/ml penicillin, and 100 µg/ml streptomycin.

[3] = tested on: ER stress markers (GRP78, ATF4, pPERK, IRE1α, sXBP1, ATF6); experiment: ER stress / UPR readouts in hepatocytes; type: cell-based, human; settings: HuH7; with TG 100 nM
Experimental: as §2
Following treatment, live cells were incubated in complete DMEM containing 5 μM Thioflavin-T (ThT; Thermofisher Scientific) for 15 minutes. Cells were then fixed in 4% paraformaldehyde and mounted with permafluor. Fluorescent staining was visualized using the EVOS FL colour system at either 20 or 40× magnification.
as §3
Because ER Ca^2+ depletion induces a compensatory unfolded protein response (UPR), it was also postulated that CF may attenuate UPR marker expression by increasing ER Ca^2+ levels. […] Reactive oxygen species production, a process known to occur during conditions of ER stress, was also attenuated by CF (FIG. 9 H). […] While increasing the protein binding ability of chaperones, such as GRP78, CF also attenuates SREBP2-driven gene expression (FIG. 7 L).

[4] = tested on: PCSK9; experiment: Secreted PCSK9 levels in HepG2 cells (ELISA); type: cell-based, human; settings: for PCSK9 mRNA expression and secreted levels with increasing doses / reduction of secreted PCSK9 levels compared to CF at the same dose: HepG2; for PCSK9 reduction (100 nM): Table 6, HepG2 cells, 24 h, 100 nM as printed in the cell; for efficacy for PCSK9 inhibition compared with caffeine: initial screening
Experimental: as §1, §4
CF, however, is a well-characterized compound having several health benefits with few known adverse effects. Achieving an optimal level of PCSK9 inhibition absent of the neuro-excitatory effect of CF, however, may be a challenge for the long-term clinical application of these findings. […] See Table 6 for the structure activity relationships of several other known xanthine-based compounds explored at varying doses in HepG2 cells for 24 h.

[5] = tested on: SREBP2; experiment: SREBP2 expression and activation in hepatocytes (real-time PCR, SRE-GFP reporter, immunoblot, immunofluorescence); type: cell-based, human, mouse; settings: HepG2, real-time PCR
Experimental: as §2
Cells were plated in 4-well chamber slides and incubated in complete DMEM for 24 h and exposed to treatments 24 h later for an additional 24 h. Cells were fixed with 4% paraformaldehyde for 30 minutes and washed with either non-permeabilizing, or permeabilizing PBS containing 0.025% Triton-X. Cells were then blocked with 1% bovine serum albumin (BSA) for 30 minutes and stained with anti-GFP antibody for 1 h in PBS containing 1% BSA. Afterwards, cells were washed and incubated with Alexa 488 fluorescently-labelled secondary antibodies (Thermofisher Scientific), as well as the DAPI nuclear stain. Slides were then mounted with permafluor and visualized using the EVOS FL colour imaging system at either 20 or 40× magnification.
as §3
Therefore, the effect of CF on TG-; induced SREBP2 activation was examined. […] SREBP2 activity was then examined at the protein level in HuH7 cells transfected with a plasmid encoding GFP driven by the sterol regulatory element (SRE-GFP; FIG. 2E to G). […] GFP expression was also visualized via immunofluorescent staining and quantified using ImageJ Software.

[6] = tested on: HepG2 cells; experiment: DiI-LDL uptake assay in HepG2 cells; type: cell-based, human; settings: for DiI-LDL cholesterol uptake: HepG2, 10 μM
Experimental: During the last 5 h of treatment (h 19 to 24) cells were exposed to DiI-LDL (10 μg/ml) and then washed with two changes of pre-warmed (37° C.) HBSS containing 20 mM HEPES prior to analysis.
(§5) The uptake and accumulation of DiI-LDL was then quantified using a fluorescent spectrophotometer (Molecular Devices). […] Live-cell staining of the LDLR was also performed in HepG2 cells exposed to DiI-LDL (FIG. 11 D).

[7] = tested on: LDLR; experiment: LDLR / CD36 expression in cultured hepatocytes; type: cell-based, human; settings: HepG2, 10 μM, immunofluorescent staining
From the text: as §2, with “Gels were transferred to nitrocellulose membranes using the BioRad mini trans-blot system, blocked in 5% skim milk in tris-buffered saline (TBS) for 1 h and incubated in primary antibody overnight for 16 h at 4° C.” left out
Slides were then mounted with permafluor and visualized using the EVOS FL colour imaging system at either 20 or 40× magnification.
as §3, §5

[8] = tested on: HepG2 hepatocytes; experiment: LDH cytotoxicity assay in HepG2 hepatocytes; type: cell-based, human; settings: cultured HepG2 hepatocytes
Experimental: Secreted PCSK9 levels were assessed using ELISAs and mRNA transcript via real-time PCR. […] Secreted PCSK9, as well as PCSK9 mRNA and SREBP2 mRNA were assessed in these cells. (E) The cytotoxicity of these agents was examined using an LDH assay. […] (G) The uptake of DiI-LDL was also quantified in these cells using a spectrophotometer. Values are presented as the mean and error bars as SD. *, p<0.05 vs. vehicle; NS, non-significant.

`NCCOB(c1ccccc1)c1ccccc1` [2 APB, 2-APB] was tested, and the “SREBP2 and PCSK9 mRNA transcript level” value [1] was “blocked SREBP2 and PCSK9 at the mRNA transcript level”, the “PCSK9 secretion with Ca2+-modulating agents” value [2] was “blocked PCSK9 secretion” and the “TG-induced GRP78 expression” value [3] was “blocked TG-induced expression”.
For `Cn1c(=O)c2c(nc(/C=C/c3cccc(Cl)c3)n2C)n(C)c1=O` [8CC, 8-(3-Chlorostyryl) CF], the “PCSK9 mRNA expression and secreted levels with increasing doses” value [4] was “dose-dependent reduction”.
For `Cn1c(=O)c2[nH]c(C3CCCC3)nc2n(C)c1=O` [8CD, 8-cyclopentyl-1,3-dimethylxanthine], the “PCSK9 mRNA expression and secreted levels with increasing doses” value [4] was “dose-dependent reduction”.
For `Cn1c(=O)c2[nH]c(-c3ccncc3)nc2n(C)c1=O` [I-9], the “PCSK9 reduction (100 nM)” value [4] was 0.86 (100 nM).
For `Cn1c(=O)c2[nH]c(-c3ccc([N+](=O)[O-])cc3)nc2n(C)c1=O` [I-10], the “PCSK9 reduction (100 nM)” value [4] was 0.93 (100 nM).
In the case of `Cn1c(=O)c2[nH]c(-c3cc(F)c(F)cc3F)nc2n(C)c1=O` [Ia-1], the “reduction of secreted PCSK9 levels compared to CF at the same dose” value [4] is reported as 2 fold, the “efficacy for PCSK9 inhibition compared with caffeine” value [4] is reported as “significantly greater efficacy for PCSK9 inhibition than caffeine” and the “PCSK9 and SREBP2 mRNA” value [5] is reported as “antagonism of SREBP2 reduced de novo synthesis of PCSK9”. For the same compound, the DiI-LDL cholesterol uptake [6] was “significant increase”, the “cell-surface LDLR expression” value [7] was “significant increase in LDLR expression” and the “cytotoxicity (LDH assay)” value [8] was “did not exhibit cytotoxic properties”.
For `Cn1c(=O)c2[nH]c(-c3ccc([N+](=O)[O-])o3)nc2n(C)c1=O` [Ia-7], the “reduction of secreted PCSK9 levels compared to CF at the same dose” value [4] was 2 fold, the “efficacy for PCSK9 inhibition compared with caffeine” value [4] was “significantly greater efficacy for PCSK9 inhibition than caffeine” and the “PCSK9 and SREBP2 mRNA” value [5] was “antagonism of SREBP2 reduced de novo synthesis of PCSK9”. The DiI-LDL cholesterol uptake [6] was “significant increase”, the “cell-surface LDLR expression” value [7] was “significant increase in LDLR expression” and the “cytotoxicity (LDH assay)” value [8] was “did not exhibit cytotoxic properties”.
For `CCCn1c(=O)[nH]c2nc(-c3ccc(S(=O)(=O)N4CCN(c5ccc(Cl)cc5)CC4)cc3)[nH]c2c1=O` [PSB603], the “PCSK9 mRNA expression and secreted levels with increasing doses” value [4] was “dose-dependent reduction”.
For `CCN(CC)CCO[C@H]1CC[C@@]2(C)C(=CC[C@@H]3[C@@H]2CC[C@]2(C)C(=O)CC[C@@H]32)C1` [U18, U18666A], the “PCSK9 secretion with Ca2+-modulating agents” value [2] was “increased PCSK9 secretion” and the “LDLc (DiI-LDL) uptake” value ([6]; HepG2, 24 h treatment, DiI-LDL 5 h) was “reduced LDLc uptake”.
`Cn1c(=O)[nH]c2ncn(C)c2c1=O` [paraxanthine] was tested, and the “PCSK9 mRNA expression and secreted levels with increasing doses” value [4] was “dose-dependent reduction”.
In the case of `CCCCCCCC/C=C\CCCCCCCC(=O)ON1C(=O)CC(S(=O)(=O)O)C1=O` (stereo not shown) [sulfosuccinimidyl oleate], the “effect of CD36 inhibition on CF-mediated DiI-LDL uptake” value ([6]; HepG2) is reported as “failed to affect CF-mediated DiI-LDL uptake”.
With `Cn1cnc2c1c(=O)[nH]c(=O)n2C` [theobromine] the “PCSK9 mRNA expression and secreted levels with increasing doses” value [4] was “dose-dependent reduction”.
